Consider 2 compounds from US5849695A, “Parathyroid hormone analogues useful for treatment of osteoporosis and disorders of calcium meatabolism in mammals” (The Regents of the University of California, priority 1993, dated 1998).

The target of data set [1] is T1, PTH receptor (Rattus norvegicus, UniProt P25961).
T1 construct: endogenous in cells; host or cells: UMR 106-H5 rat osteosarcoma cells
T1 sequence (P25961 27-591): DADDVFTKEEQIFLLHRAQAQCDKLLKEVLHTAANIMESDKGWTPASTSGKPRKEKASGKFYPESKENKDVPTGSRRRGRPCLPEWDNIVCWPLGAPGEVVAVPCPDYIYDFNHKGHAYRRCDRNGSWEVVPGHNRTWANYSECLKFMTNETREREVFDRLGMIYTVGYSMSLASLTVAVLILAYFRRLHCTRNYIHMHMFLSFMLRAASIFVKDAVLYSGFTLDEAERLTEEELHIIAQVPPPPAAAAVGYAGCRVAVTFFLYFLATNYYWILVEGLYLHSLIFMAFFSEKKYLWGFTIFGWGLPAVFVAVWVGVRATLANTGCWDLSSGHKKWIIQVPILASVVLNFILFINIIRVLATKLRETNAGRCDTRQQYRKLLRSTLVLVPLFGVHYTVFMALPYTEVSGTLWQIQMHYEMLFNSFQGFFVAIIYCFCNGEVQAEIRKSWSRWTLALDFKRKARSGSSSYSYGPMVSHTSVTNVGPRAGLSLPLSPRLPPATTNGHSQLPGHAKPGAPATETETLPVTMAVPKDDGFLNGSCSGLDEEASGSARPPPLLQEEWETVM
The format is cell-based. Here is the method:
(§1) Assays were conducted using UMR-160-H5 cells. These assays were performed as described in Cohen et al. (1991), J. Biological Chem., 266(3), 1997 and in the Experimental section, e.g. Example 11. Receptor binding assays were carried out in canine renal plasma membranes and in UMR 106-H5 rat osteosarcoma cells as previously described in detail (Ref. 14,32), using ^125 I-labeled PTH(1-34)amide as the radioligand. Binding potency (IC50) was quantified as the concentration of unlabeled peptide required for half-maximal displacement of the radioligand. […] Adenylate cyclase activity was assessed in canine renal membranes by the conversion of [α-32p ] ATP to [^32 P] cyclic AMP, essentially as described, except for the addition of 100 micromolar GTP (Ref. 33,34). Adenylate cyclase activity in UMR 106-H5 cells was assessed essentially as described (Ref. 35). In brief, cells were incubated with [3H]adenine 1 micro Ci/ml of serum-free MEM for two hours at 37° C. to label the endogenous ATP pool. Cells were then exposed to 0.4 mM IBMX for 10 min, followed by the appropriate peptide for an additional 10 min at ambient temperature. The cells are then scraped in 20% TCA, and [3H]cyclic AMP is isolated by the column procedure of Salomon et al. (Ref. 36). Potency in the adenylate cyclase assays (Ka) is the concentration of peptide producing half-maximal enzyme activation.

In data set [2] the target is T2, PTH receptor (Canis lupus familiaris, UniProt Q9TU31).
T2 construct: canine renal plasma membranes; from tissue; host or cells: canine kidney (renal plasma membranes)
T2 sequence (Q9TU31 29-595): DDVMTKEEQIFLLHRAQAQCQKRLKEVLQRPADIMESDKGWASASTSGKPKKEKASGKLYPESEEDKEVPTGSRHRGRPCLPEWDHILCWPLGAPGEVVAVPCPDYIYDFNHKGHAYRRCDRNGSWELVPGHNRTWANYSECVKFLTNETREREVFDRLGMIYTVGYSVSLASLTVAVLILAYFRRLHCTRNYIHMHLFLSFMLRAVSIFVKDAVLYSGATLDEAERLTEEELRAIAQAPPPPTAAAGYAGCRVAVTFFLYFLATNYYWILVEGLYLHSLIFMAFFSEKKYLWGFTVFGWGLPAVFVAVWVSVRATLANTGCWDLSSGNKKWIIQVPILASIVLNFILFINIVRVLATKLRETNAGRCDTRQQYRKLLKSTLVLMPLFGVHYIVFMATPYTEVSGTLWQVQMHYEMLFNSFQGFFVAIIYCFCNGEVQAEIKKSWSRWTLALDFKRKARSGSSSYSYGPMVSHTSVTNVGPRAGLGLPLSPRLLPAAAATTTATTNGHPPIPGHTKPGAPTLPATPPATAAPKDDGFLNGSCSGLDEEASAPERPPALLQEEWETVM
It is filed as biochemical, canine. Here is the method: as §1, with “Receptor” for “Assays were conducted using UMR-160-H5 cells. These assays were performed as described in Cohen et al. (1991), J. Biological Chem., 266(3), 1997 and in the Experimental section, e.g. Example 11. Receptor”

Data set [3] has as its system PTH receptor.
Data set [4] deals with T3, PTH receptor (Homo sapiens, UniProt Q03431).
T3 sequence (Q03431 27-593): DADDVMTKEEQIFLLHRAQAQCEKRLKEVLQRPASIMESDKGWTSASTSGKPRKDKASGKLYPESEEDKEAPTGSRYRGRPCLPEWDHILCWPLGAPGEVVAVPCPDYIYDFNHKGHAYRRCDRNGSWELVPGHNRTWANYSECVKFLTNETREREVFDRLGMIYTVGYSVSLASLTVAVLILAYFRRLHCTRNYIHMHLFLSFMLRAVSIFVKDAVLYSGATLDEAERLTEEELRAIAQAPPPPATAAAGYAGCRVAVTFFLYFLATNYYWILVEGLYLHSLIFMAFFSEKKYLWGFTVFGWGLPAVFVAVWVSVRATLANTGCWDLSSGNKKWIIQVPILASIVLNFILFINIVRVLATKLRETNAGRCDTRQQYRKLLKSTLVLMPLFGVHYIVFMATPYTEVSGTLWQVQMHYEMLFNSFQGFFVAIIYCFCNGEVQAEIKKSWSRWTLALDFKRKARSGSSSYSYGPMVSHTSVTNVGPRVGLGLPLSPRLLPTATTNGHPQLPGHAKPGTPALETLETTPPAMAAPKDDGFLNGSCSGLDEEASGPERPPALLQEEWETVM

Data set [5] has as its target T1, PTH receptor. It is filed as binding. Here is the method:
as §1, with “Receptor” for “Assays were conducted using UMR-160-H5 cells. These assays were performed as described in Cohen et al. (1991), J. Biological Chem., 266(3), 1997 and in the Experimental section, e.g. Example 11. Receptor”

For data set [6], the target named is T3, PTH receptor. It is filed as cell-based. On the set-up: In intact rat (UMR-106) and human (SaOS-2) bone cell lines; endogenous in cells; host or cells: SaOS-2 human bone (osteosarcoma) cells. The source says:
The renal membrane assay values listed reflect the effect of the polypeptide analogue with kidney tissue receptors. The UMR-106-H5 assay values reflect the effect of the peptide analogue with rat bone tissue receptors. The Sa05-2 assay values reflect the effect of the peptides for human bone tissue receptors.

Data set [7] addresses T3, PTH receptor. The source holds these as a separate data set.
Data set [8] has as its target T2, PTH receptor. It is filed as binding, canine. Here is the method: as §1, with “Receptor” for “Assays were conducted using UMR-160-H5 cells. These assays were performed as described in Cohen et al. (1991), J. Biological Chem., 266(3), 1997 and in the Experimental section, e.g. Example 11. Receptor”
For data set [9] the following is noted: aqueous conditions in the absence of amphiphiles (Ref. 37-39); cited from earlier work.
Where [10] appears, read: Table 5A, intact cells, hPTH(1-34) = 100.

For `CC[C@H](C)[C@H](NC(=O)[C@H](CCC(=O)O)NC(=O)[C@H](CC(C)C)NC(=O)[C@@H](NC(=O)[C@@H](N)CO)C(C)C)C(=O)N[C@@H](CCC(N)=O)C(=O)N[C@@H](CC(C)C)C(=O)N[C@@H](CCSC)C(=O)N[C@@H](Cc1c[nH]cn1)C(=O)N[C@@H](CC(N)=O)C(=O)N[C@@H](CC(C)C)C(=O)NCC(=O)N[C@@H](CCCCN)C(=O)N[C@@H](Cc1c[nH]cn1)C(=O)N[C@@H](CC(C)C)C(=O)N[C@@H](CC(N)=O)C(=O)N[C@@H](CO)C(=O)N[C@@H](CCSC)C(=O)N[C@@H](CCC(=O)O)C(=O)N[C@@H](CCCNC(=N)N)C(=O)N[C@H](C(=O)N[C@@H](CCC(=O)O)C(=O)N[C@@H](Cc1c[nH]c2ccccc12)C(=O)N[C@@H](CC(C)C)C(=O)N[C@@H](CCCNC(=N)N)C(=O)N[C@@H](CCCCN)C(=O)N[C@@H](CCCCN)C(=O)N[C@@H](CC(C)C)C(=O)N[C@@H](CCC(N)=O)C(=O)N[C@@H](CC(=O)O)C(=O)N[C@H](C(=O)N[C@@H](Cc1c[nH]cn1)C(=O)N[C@@H](CC(N)=O)C(=O)N[C@@H](Cc1ccccc1)C(=O)O)C(C)C)C(C)C` [[leu^3]hPTH(1-34), [leu^3] HPTH(1-34)], in the data set with PTH receptors, the “KIDNEY CELLS (CK) Potency (B)” value worked out at 22% and the “potency of native [ser^3]HPTH(1-34) retained in binding to PTH receptors” value is listed as 5-15%. Moreover, at PTH receptor [1], the “BONE CELLS Rat(UMR-106) Potency (AC)” value amounted to 13%. Moreover, at PTH receptor [1] (setting [10]), the “BONE CELLS Rat(UMR-106) Activity (AC)” value stood at 100%. Further, the “RENAL MEMBRANES Canine Potency (AC)” value at PTH receptor [2] amounted to 1%. On PTH receptor [2] (Table 5B, hPTH(1-34) = 100), the “RENAL MEMBRANES Canine Activity (AC)” value came out at 47%. Also, the “KIDNEY CELLS (CK) Potency (AC)” value with PTH receptor [3] came to 16%. Moreover, the “RENAL MEMBRANES Human Potency (AC)” value on PTH receptor [4] worked out at 3%. Moreover, at PTH receptor [4] (Table 5B, hPTH(1-34) = 100), the “RENAL MEMBRANES Human Activity (AC)” value is recorded as 35%. Besides, the “BONE CELLS Rat(UMR-106) Potency (B)” value at PTH receptor [5] was determined as 6%. The “BONE CELLS Human(SaOS-2) Potency (AC)” value at PTH receptor [6] was 11%. Further, the “BONE CELLS Human(SaOS-2) Activity (AC)” value on PTH receptor [6] (setting [10]) was determined as 86%. Also, the “BONE CELL MEMBRANES Human SaOS-2 Potency (AC)” value on PTH receptor [7] worked out at 8%. Further, the “BONE CELL MEMBRANES Human SaOS-2 Activity (AC)” value at PTH receptor [7] (Table 5B, hPTH(1-34) = 100) came out at 14%. Also, at PTH receptor [8], the “RENAL MEMBRANES Canine Potency (B)” value is recorded as 7%.
Consider “bPTH(7-34) (FMHNLGKHLSSMERVEWLRKKLQDVHNF; Parathyroid hormone; UniProt P01268 38-65, looked up, fragment)”, for which, in data set [9], the “alpha-helical residues, previous estimates” value is reported as 9 residues.
